Laboratory results: patent US20130065757A1, “CHEMICAL COMPOUNDS” (Syngenta Limited, priority 2010, published 2013)

Assays:
[1] = system: Alopecurus myosuroides (ALOMY); assay: Pre-emergence biological efficacy, glasshouse pot test; type: in vivo; conditions: 312 h, 1,000 g/ha, evaluated after 13 days, 100=total damage, 0=no damage, read-out: Percentage damage caused to weed species, pre-emergence, ALOMY
Protocol: (§1) Seeds of Alopecurus myosuroides (ALOMY), Setaria faberi (SETFA), Echinochloa crus-galli (ECHCG), Solanum nigrum (SOLNI), Amaranthus retroflexus (AMARE) and Ipomoea hederaceae (IPOHE) were sown in standard soil in pots. After cultivation for one day under controlled conditions in a glasshouse (at 24/16° C., day/night; 14 hours light; 65% humidity), the plants were sprayed with an aqueous spray solution derived from the formulation of the technical active ingredient in acetone/water (50:50) solution containing 0.5% Tween 20 (polyoxyethylene sorbitan monolaurate, CAS RN 9005-64-5) to give a final dose of 1000 g/ha of test compound.
(§2) The test plants were then grown under controlled conditions in the glasshouse (at 24/16° C., day/night; 14 hours light; 65% humidity) and watered twice daily. After 13 days the test was evaluated (100=total damage to plant; 0=no damage to plant).

[2] = system: Amaranthus retroflexus (AMARE); assay: as above; type: in vivo; conditions: 312 h, 1,000 g/ha, evaluated after 13 days, 100=total damage, 0=no damage, read-out: Percentage damage caused to weed species, pre-emergence, AMARE
Protocol: as §1, §2

[3] = system: Echinochloa crus-galli (ECHCG); assay: as above; type: in vivo; conditions: 312 h, 1,000 g/ha, evaluated after 13 days, 100=total damage, 0=no damage, read-out: Percentage damage caused to weed species, pre-emergence, ECHCG
Protocol: as §1, §2

[4] = system: Ipomoea hederaceae (IPOHE); assay: as above; type: in vivo; conditions: 312 h, 1,000 g/ha, evaluated after 13 days, 100=total damage, 0=no damage, read-out: Percentage damage caused to weed species, pre-emergence, IPOHE
Protocol: as §1, §2

[5] = system: Setaria faberi (SETFA); assay: as above; type: in vivo; conditions: 312 h, 1,000 g/ha, evaluated after 13 days, 100=total damage, 0=no damage, read-out: Percentage damage caused to weed species, pre-emergence, SETFA
Protocol: as §1, §2

[6] = system: Solanum nigrum (SOLNI); assay: as above; type: in vivo; conditions: 312 h, 1,000 g/ha, evaluated after 13 days, 100=total damage, 0=no damage, read-out: Percentage damage caused to weed species, pre-emergence, SOLNI
Protocol: as §1, §2

[7] = system: Alopecurus myosuroides (ALOMY); assay: Post-emergence biological efficacy, glasshouse pot test; type: in vivo; conditions: 312 h, 1,000 g/ha, post-emergence (sprayed after 8 days), evaluated after 13 days, 100=total damage, 0=no damage, read-out: Percentage damage caused to weed species, post-emergence, ALOMY
Protocol: as §1, with “8 days” for “one day”
(§3) The test plants were then grown on under controlled conditions in a glasshouse (at 24/16° C., day/night; 14 hours light; 65% humidity) and watered twice daily. After 13 days the test was evaluated (100=total damage to plant; 0=no damage to plant).

[8] = system: Amaranthus retroflexus (AMARE); assay: as above; type: in vivo; conditions: 312 h, 1,000 g/ha, post-emergence (sprayed after 8 days), evaluated after 13 days, 100=total damage, 0=no damage, read-out: Percentage damage caused to weed species, post-emergence, AMARE
Protocol: as §1, with “8 days” for “one day”
as §3

[9] = system: Echinochloa crus-galli (ECHCG); assay: as above; type: in vivo; conditions: 312 h, 1,000 g/ha, post-emergence (sprayed after 8 days), evaluated after 13 days, 100=total damage, 0=no damage, read-out: Percentage damage caused to weed species, post-emergence, ECHCG
Protocol: as §1, with “8 days” for “one day”
as §3

[10] = system: Ipomoea hederaceae (IPOHE); assay: as above; type: in vivo; conditions: 312 h, 1,000 g/ha, post-emergence (sprayed after 8 days), evaluated after 13 days, 100=total damage, 0=no damage, read-out: Percentage damage caused to weed species, post-emergence, IPOHE
Protocol: as §1, with “8 days” for “one day”
as §3

[11] = system: Setaria faberi (SETFA); assay: as above; type: in vivo; conditions: 312 h, 1,000 g/ha, post-emergence (sprayed after 8 days), evaluated after 13 days, 100=total damage, 0=no damage, read-out: Percentage damage caused to weed species, post-emergence, SETFA
Protocol: as §1, with “8 days” for “one day”
as §3

[12] = system: Solanum nigrum (SOLNI); assay: as above; type: in vivo; conditions: 312 h, 1,000 g/ha, post-emergence (sprayed after 8 days), evaluated after 13 days, 100=total damage, 0=no damage, read-out: Percentage damage caused to weed species, post-emergence, SOLNI
Protocol: as §1, with “8 days” for “one day”
as §3

[13] = system: Maize cv CLAXXON; assay: Safening on corn, general crop injury; type: in vivo; conditions: 200 g ai/ha (with safener 200 + 200), sprayed at 3-leaf stage, 100% total damage, 0% no damage
Protocol: (§4) Maize seeds were sown into standard soil in pots and cultivated under controlled conditions in a glasshouse (at 24/18° C. day/night; 16 hours light; 65% humidity).
(§5) When the plants were at the vegetative stage of 3 leaves they were sprayed with an aqueous spray solution containing the components of the invention alone and where appropriate the herbicide safener (N-(2-methoxybenzoyl)-4-[(methylaminocarbonyl)amino]benzenesulfonamide). All the compounds used for the spray solution were present as an EC or SC formulation respectively. In addition a non-ionic surfactant (X-77 Spreader) was added to form a 0.2% v/v solution.
(§6) The spray solution was applied with a cabinet tracksprayer with a flat fan nozzle (Teejet 11002VS) and an application volume of 200 L/ha (at 2 bar).
(§7) The test plants were then grown on in a glasshouse under controlled conditions (at 24/18° C. day/night; 16 hours light; 65% humidity) and watered twice a day. After 7 and 17 days the test was evaluated for general crop injury (100% equals total damage to plant; 0% equals no damage to plant).

[14] = system: Maize cv GARLAND; assay: Safening on corn, general crop injury; type: in vivo; conditions: 200 g ai/ha (with safener 200 + 200), sprayed at 3-leaf stage, 100% total damage, 0% no damage
Protocol: as §4, §5, §6, §7

| melting point | SMILES | pest or weed control at 1000 g/ha [1] [%] | pest or weed control at 1000 g/ha [2] [%] | pest or weed control at 1000 g/ha [3] [%] | pest or weed control at 1000 g/ha [4] [%] | pest or weed control at 1000 g/ha [5] [%] | pest or weed control at 1000 g/ha [6] [%] | pest or weed control at 1000 g/ha [7] [%] | pest or weed control at 1000 g/ha [8] [%] | pest or weed control at 1000 g/ha [9] [%] | pest or weed control at 1000 g/ha [10] [%] | pest or weed control at 1000 g/ha [11] [%] | pest or weed control at 1000 g/ha [12] [%] | Percentage damage caused to corn, Maize cv CLAXXON, 7 days after application [13] [%] | Percentage damage caused to corn, Maize cv CLAXXON, 17 days after application [13] [%] | Percentage damage caused to corn, Maize cv GARLAND, 7 days after application [14] [%] | Percentage damage caused to corn, Maize cv GARLAND, 17 days after application [14] [%] |
| --- | --- | --- | --- | --- | --- | --- | --- | --- | --- | --- | --- | --- | --- | --- | --- | --- | --- |
| – | C=Cc1c(C(=O)O)nc(Cl)c(F)c1N [Compound 1-12, 4-Amino-6-chloro-3-ethenyl-5-fluoro-pyridine-2-carboxylic acid] | 90 | 100 | 90 | 100 | 100 | 100 | 90 | 100 | 90 | 100 | 90 | 90 | 60 | 50 | 60 | 50 |
| 141 to 146 °C (dec.) | C=Cc1c(N)cc(Cl)nc1C(=O)O [Compound 1-4, 4-amino-6-chloro-3-ethenyl-pyridine-2-carboxylic acid] | 90 | 100 | 90 | 100 | 100 | 100 | 80 | 100 | 80 | 70 | 100 | 100 | 60 | 50 | 60 | 65 |
| – | C/C=C/c1c(N)cc(Cl)nc1C(=O)OC [2-5 (E isomer), (E)-4-Amino-6-chloro-3-(prop-1-enyl)-pyridine-2-carboxylic acid methyl ester] | 90 | 90 | 70 | 100 | 100 | 100 | 50 | 100 | 60 | 70 | 70 | 90 | – | – | – | – |
| – | COC(=O)c1nc(Cl)cc(N)c1C [Compound 2-1, 4-amino-6-chloro-3-methyl-pyridine-2-carboxylic acid methyl ester] | 90 | 100 | 70 | 80 | 80 | 100 | 90 | 100 | 60 | 50 | 100 | 90 | – | – | – | – |
| – | C=Cc1c(NCC(C)O)cc(Cl)nc1C(=O)OC (stereo not drawn) [Compound 21-4, 6-Chloro-3-ethenyl-4-(2-hydroxypropylamino)-pyridine-2-carboxylic acid methyl ester] | 90 | 100 | 90 | 80 | 90 | 100 | 70 | 100 | 80 | 50 | 80 | 100 | – | – | – | – |
| – | COC(=O)c1nc(Cl)cc(N)c1C(F)(F)F [Compound 2-2, 4-amino-6-chloro-3-trifluoromethyl-pyridine-2-carboxylic acid methyl ester] | 20 | 80 | 10 | 90 | 0 | 80 | 10 | 80 | 10 | 70 | 10 | 80 | – | – | – | – |
| – | C=Cc1c(C(=O)OC)nc(Cl)c(Cl)c1N [Compound 2-20, 4-amino-5,6-dichloro-3-ethenyl-1-pyridine-2-carboxylic acid methyl ester] | 90 | 100 | 90 | 100 | 90 | 100 | 90 | 100 | 90 | 100 | 90 | 100 | – | – | – | – |
| – | COC(=O)c1nc(Cl)cc(N)c1-c1ccc(Cl)cc1 [Compound 2-168, 4-Amino-6-chloro-3-(4-chlorophenyl)-pyridine-2-carboxylic acid methyl ester] | 30 | 90 | 20 | 80 | 0 | 80 | 20 | 100 | 10 | 70 | 20 | 80 | – | – | – | – |
